We go through 37 compounds from patent EP3305781A1, “CHEMICAL SUBSTANCES WHICH INHIBIT THE ENZYMATIC ACTIVITY OF HUMAN KALLIKREIN-RELATED PEPTIDASE 6 (KLK6)” (Deutsches Krebsforschungszentrum, priority 2016, dated 2018).

pIC50: −log10 of the molar value. Like-named read-outs stand apart in the source and are kept apart here. A value given as a limit tells only on which side of the number the result lay.

Among the targets are Thrombin (Homo sapiens, UniProt P00734); Trypsin (Homo sapiens, UniProt P07477); Factor Xa (Homo sapiens, UniProt P00742); KLK6 (Homo sapiens, UniProt Q92876).
Common to all, as to assay: Biochemical inhibition assay, fluorogenic substrate FSR-AMC
Setting [1] is: read-out: Thrombin IC50, Thrombin 9.8·10^-5 NIH unit/mL, 30 min incubation with inhibitor, FSR-AMC 20 µM, Tris pH 7.5.
Setting [2] is: read-out: Trypsin IC50, Trypsin 0.88 ng/mL, 30 min incubation with inhibitor, FSR-AMC 20 µM, Tris pH 7.5.
The mark [3] stands for this setting: read-out: Factor Xa IC50, Factor Xa 4 nM, 30 min incubation with inhibitor, FSR-AMC 20 µM, Tris pH 7.5.
Setting [4] is: read-out: KLK6 IC50, KLK6 5 nM (produced in insect cells), 30 min incubation with inhibitor, FSR-AMC 20 µM, Tris pH 7.5.

For orientation: pIC50 means the IC50 on a negative log10 scale, so that one unit is a factor of ten.

Chain of Factor Xa (P00742 235-488 limits assumed): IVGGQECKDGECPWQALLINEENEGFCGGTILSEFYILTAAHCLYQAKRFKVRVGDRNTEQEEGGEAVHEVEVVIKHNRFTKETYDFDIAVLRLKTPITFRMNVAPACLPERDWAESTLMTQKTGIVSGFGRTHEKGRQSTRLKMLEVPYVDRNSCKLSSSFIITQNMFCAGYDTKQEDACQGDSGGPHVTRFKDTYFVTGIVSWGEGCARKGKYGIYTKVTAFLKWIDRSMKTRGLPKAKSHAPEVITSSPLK
Chain of Factor Xa (P00742 41-179 partner limits assumed): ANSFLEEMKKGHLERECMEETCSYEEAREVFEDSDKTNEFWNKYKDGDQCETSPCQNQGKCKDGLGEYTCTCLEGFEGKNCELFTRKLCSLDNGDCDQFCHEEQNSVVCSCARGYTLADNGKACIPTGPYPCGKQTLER
Experimental for Factor Xa: (§1) In a 384 well plate, 5 µL of eleven concentrations of inhibitor in 8% DMSO (serial dilution 2:1) and a blank were incubated with an equal amount of enzyme (KLK6, Thrombin, Trypsin or Factor Xa) diluted in 50 mM Tris pH 7.5, 150 mM NaCl, 1 mM EDTA, 0.05% Tween20 assay buffer for 30 minutes. […] Inhibition of the enzyme as a function of the inhibitor concentration was used to generate dose response curves, which allowed estimating IC50 values, according to the following equation in GraphPad Prism: y = ymin + (ymax−ymin)/(1+10^(((LogIC50−x)*HillSlope))) [formula]
(§2) Assay final concentrations: • KLK6: 5 nM • Trypsin: 0.88 ng/mL • Thrombin: 9.8·10^-5 NIH unit/mL • Factor Xa: 4 nM • FSR-AMC: 20 µM
Experimental for KLK6: as §1, §2
Experimental for Thrombin: as §1, §2
Experimental for Trypsin: as §1, §2

Regarding `Cc1nn(-c2ccccc2)c(C)c1NC(=O)COC(=O)Cc1cccc2ccccc12` [compound 42], the negative logarithm of the IC50 (pIC50) at Thrombin (setting [1]) and on Trypsin (setting [2]) was < 4.30 throughout.
As to `Cc1nn(-c2ccccc2)c(C)c1NC(=O)COC(=O)Cc1ccccc1Br` [compound 48], the pIC50 on Thrombin (setting [1]), on Trypsin (setting [2]) and at Factor Xa (setting [3]) was < 3.70 throughout.
Turning to `Cc1nn(-c2ccccc2)c(C)c1NC(=O)COC(=O)C(C)c1c(C)[nH]c2ccccc12` (stereo not drawn) [compound 81], the pIC50 on Thrombin (setting [1]), at Trypsin (setting [2]) and at Factor Xa (setting [3]) was < 3.70 each time.
For the compound `Cc1ccc(-n2nc(C)c(NC(=O)COC(=O)Cc3c[nH]c4ccccc34)c2C)cc1` [compound 13, 2-((3,5-dimethyl-1-(p-tolyl)-1H-pyrazol-4-yl)amino)-2-oxoethyl 2-(1H-indol-3-yl)acetate], the pIC50 on KLK6 was 5.19; against Thrombin it was < 3.70; on Trypsin, 3.88; against Factor Xa, 3.79.
On to `COc1ccccc1CC(=O)OCC(=O)Nc1c(C)nn(-c2ccccc2)c1C` [compound 54], for which the pIC50 was 5.31 at KLK6 (setting [4]), < 3.70 at Thrombin (setting [1]), < 3.70 on Trypsin (setting [2]) and < 3.70 on Factor Xa (setting [3]).
Consider `Cc1nn(-c2ccccc2)c(C)c1NC(=O)COC(=O)Cc1cccc(N)c1` [compound 55], for which the pIC50 is 4.77 on KLK6 (setting [4]), < 3.70 on Thrombin (setting [1]), < 3.70 at Trypsin (setting [2]) and < 3.70 on Factor Xa (setting [3]).
Take `Cc1nn(-c2ccc(N)cc2)c(C)c1NC(=O)COC(=O)Cn1c(C)cc2ccccc21` [compound 22]: the pIC50 was 6.31 at KLK6 (setting [4]), < 3.70 on Thrombin (setting [1]), 3.98 on Trypsin (setting [2]) and < 3.70 on Factor Xa (setting [3]).
`Cc1nn(-c2ccccc2)c(C)c1NC(=O)COC(=O)Cc1ccccc1I` [compound 51]: the pIC50 is 6.58 at KLK6 (setting [4]), < 3.70 on Thrombin (setting [1]), < 3.70 on Trypsin (setting [2]) and < 3.70 at Factor Xa (setting [3]).
`Cc1nn(-c2ccccc2)c(C)c1NC(=O)COC(=O)Cc1cccc(C#N)c1` [compound 56]: the negative logarithm of the IC50 (pIC50) on KLK6 (setting [4]) was 4.79; at Thrombin (setting [1]) it was < 3.70; on Trypsin (setting [2]), < 3.70; on Factor Xa (setting [3]), < 3.70.
In the case of `Cc1ccccc1CC(=O)OCC(=O)Nc1c(C)nn(-c2ccccc2)c1C` [compound 50], the negative logarithm of the IC50 (pIC50) was 5.67 at KLK6 (setting [4]), < 3.70 at Thrombin (setting [1]), < 3.70 on Trypsin (setting [2]) and < 3.70 on Factor Xa (setting [3]).
As to `C=CCOc1ccccc1NC(=O)COC(=O)Cc1ccccc1I` [compound 65], the pIC50 was 4.41 at KLK6 (setting [4]), < 3.70 on Thrombin (setting [1]), < 3.70 at Trypsin (setting [2]) and < 3.70 at Factor Xa (setting [3]).
`Cc1cccc(-n2nc(C)c(NC(=O)COC(=O)Cn3c(C)cc4ccccc43)c2C)c1` [compound 3, 2-((3,5-dimethyl-1-(m-tolyl)-1H-pyrazol-4-yl)amino)-2-oxoethyl 2-(2-methyl-1H-indol-1-yl)acetate]: the negative logarithm of the IC50 (pIC50) at KLK6 is 6.43; against Thrombin, < 3.70; against Trypsin, 4.18; against Factor Xa, < 3.70.
On to `Cc1ccccc1NC(=O)COC(=O)Cc1c(C)[nH]c2ccccc12` [compound 78], for which the negative logarithm of the IC50 (pIC50) on KLK6 (setting [4]) was 5.33; on Thrombin (setting [1]) it was < 3.70; at Trypsin (setting [2]), < 3.70; at Factor Xa (setting [3]), < 3.70.
`Cc1[nH]c2ccccc2c1CC(=O)OCC(=O)Nc1cnn(-c2ccccc2)c1` [compound 39]: the negative-log IC50 (pIC50) on KLK6 (setting [4]) is 5.16; on Thrombin (setting [1]), < 4.30; on Trypsin (setting [2]), < 4.30; at Factor Xa (setting [3]), < 4.30.
For `CCc1cc2ccccc2n1CC(=O)OCC(=O)Nc1c(C)nn(-c2ccccc2)c1C` [compound 36], the pIC50 was 6.36 on KLK6 (setting [4]), < 4.30 at Thrombin (setting [1]), 4.53 at Trypsin (setting [2]) and < 4.30 on Factor Xa (setting [3]).
For the compound `Cc1nn(-c2ccccc2)c(C)c1NC(=O)COC(=O)Cn1c(C)cc2cccc(Cl)c21` [compound 33], the pIC50 on KLK6 (setting [4]) was 5.19; on Thrombin (setting [1]), < 4.30; at Trypsin (setting [2]) it was < 4.30; on Factor Xa (setting [3]), < 4.30.
Consider `Cc1nn(-c2ccccc2[N+](=O)[O-])c(C)c1NC(=O)COC(=O)Cn1c(C)cc2ccccc21` [compound 5, 2-((3,5-dimethyl-1-(2-nitrophenyl)-1H-pyrazol-4-yl)amino)-2-oxoethyl 2-(2-methyl-1H-indol-1-yl)acetate], for which the pIC50 at KLK6 was 6.76; against Thrombin, < 3.70; on Trypsin, 4.29; against Factor Xa, 4.30.
With `Cc1cccc(NC(=O)COC(=O)Cc2c(C)[nH]c3ccccc23)c1` [compound 75], the pIC50 on KLK6 (setting [4]) was 5.27; at Thrombin (setting [1]), < 3.70; at Trypsin (setting [2]), < 3.70; on Factor Xa (setting [3]), < 3.70.
`Cc1nn(-c2ccccc2)c(C)c1NC(=O)COC(=O)Cc1ccccc1N=[N+]=[N-]` [compound 82]: the pIC50 was 4.56 on KLK6 (setting [4]), < 3.70 on Thrombin (setting [1]), < 3.70 at Trypsin (setting [2]) and < 3.70 at Factor Xa (setting [3]).
`Cc1nn(-c2ccccc2)c(C)c1NC(=O)COC(=O)Cc1ccccc1` [compound 43]: the pIC50 at Thrombin (setting [1]) and on Trypsin (setting [2]) was < 4.30 throughout.
For `Cc1nn(-c2ccccc2)c(C)c1NC(=O)COC(=O)Cc1ccccn1` [compound 58], the pIC50 on KLK6 (setting [4]) is 5.05; at Thrombin (setting [1]), < 3.70; on Trypsin (setting [2]), < 3.70; on Factor Xa (setting [3]), < 3.70.
In the case of `Cc1nn(-c2ccccc2)c(C)c1NC(=O)COC(=O)C(C)n1c(C)cc2ccccc21` (stereo not drawn) [compound 34], the negative logarithm of the IC50 (pIC50) at KLK6 (setting [4]) is 4.95; at Thrombin (setting [1]) it was < 4.30; at Trypsin (setting [2]), < 4.30; on Factor Xa (setting [3]), < 4.30.
Take `Cc1nn(-c2ccccc2)c(C)c1NC(=O)COC(=O)Cc1ccsc1Cl` [compound 66]: the negative logarithm of the IC50 (pIC50) on KLK6 (setting [4]) is 5.13; at Thrombin (setting [1]) it was < 3.70; at Trypsin (setting [2]), < 3.70; on Factor Xa (setting [3]), < 3.70.
On to `Cc1nn(-c2ccc([N+](=O)[O-])cc2)c(C)c1NC(=O)COC(=O)Cn1c(C)cc2ccccc21` [compound 10, 2-((3,5-dimethyl-1-(4-nitrophenyl)-1H-pyrazol-4-yl)amino)-2-oxoethyl 2-(2-methyl-1H-indol-1-yl)acetate], for which the negative-log IC50 (pIC50) is 6.00 against KLK6, < 3.70 against Thrombin, < 3.70 against Trypsin and < 3.70 on Factor Xa.
As to `Cc1nn(-c2ccccc2)c(C)c1NC(=O)COC(=O)Cc1ccccc1Cl` [compound 45], the figures for the pIC50 at KLK6 (setting [4]), on Thrombin (setting [1]) and on Trypsin (setting [2]) were 5.87, < 4.30 and < 4.30, respectively.
On to `Cc1nn(-c2ccccc2)c(C)c1NC(=O)COC(=O)Cc1ccc(C#N)cc1` [compound 46], for which the negative logarithm of the IC50 (pIC50) at KLK6 (setting [4]) is 4.53; at Thrombin (setting [1]), < 4.30; on Trypsin (setting [2]), < 4.30.
Consider `Cc1nn(-c2ccccc2)c(C)c1NC(=O)COC(=O)Cn1c(C)cc2cc(Cl)ccc21` [compound 30], for which the negative logarithm of the IC50 (pIC50) on Thrombin (setting [1]), on Trypsin (setting [2]) and at Factor Xa (setting [3]) was < 4.30 each time.
As to `Cc1[nH]c2ccccc2c1CC(=O)OCC(=O)Nc1cncnc1` [compound 86], the negative-log IC50 (pIC50) was 4.18 on Thrombin (setting [1]), < 3.70 on Trypsin (setting [2]) and 3.83 at Factor Xa (setting [3]).
`Cc1nn(-c2ccccc2)c(C)c1NC(=O)COC(=O)Cc1ccc(N)cc1` [compound 44]: the results for the pIC50 at KLK6 (setting [4]), on Thrombin (setting [1]) and on Trypsin (setting [2]) were 4.91, < 4.30 and < 4.30, respectively.
`Cc1nn(-c2ccccc2)c(C)c1NC(=O)COC(=O)CCc1c(C)[nH]c2ccccc12` [compound 87]: the negative-log IC50 (pIC50) at Thrombin (setting [1]), at Trypsin (setting [2]) and on Factor Xa (setting [3]) was < 3.70 in each case.
As for `Cc1nn(-c2ccccc2)c(C)c1NC(=O)COC(=O)Cc1c[nH]c2ccccc12` [compound 12, 2-((3,5-dimethyl-1-phenyl-1H-pyrazol-4-yl)amino)-2-oxoethyl 2-(1H-indol-3-yl)acetate], the pIC50 is < 3.70 against Thrombin, 3.86 at Trypsin and 3.87 against Factor Xa.
As to `Cc1ccccc1NC(=O)COC(=O)Cn1c(C)cc2ccccc21` [compound 26], the negative logarithm of the IC50 (pIC50) at Thrombin (setting [1]), on Trypsin (setting [2]) and on Factor Xa (setting [3]) was < 4.30 each time.
As for `Cc1nn(-c2ccccc2)c(C)c1NC(=O)COC(=O)Cn1c(C)cc2ccccc21` [compound 1, 2-((3,5-dimethyl-1-phenyl-1H-pyrazol-4-yl)amino)-2-oxoethyl 2-(2-methyl-H-indol-1-yl)acetate], the results for the pIC50 against Thrombin, on Trypsin and at Factor Xa were < 3.70, 4.40 and < 3.70, respectively.
As for `Cc1nn(-c2ccccc2)c(C)c1NC(=O)C1(OC(=O)Cn2c(C)cc3ccccc32)CC1` [compound 40], the pIC50 on Thrombin (setting [1]), on Trypsin (setting [2]) and at Factor Xa (setting [3]) was < 4.30 throughout.
Regarding `Cc1nn(-c2ccccc2)c(C)c1NC(=O)COC(=O)Cc1ccsc1` [compound 70], the pIC50 at Thrombin (setting [1]), on Trypsin (setting [2]) and on Factor Xa (setting [3]) was < 3.70 each time.
Take `Cc1[nH]c2ccccc2c1CC(=O)OCC(=O)Nc1ccc(N2CCOCC2)cc1` [compound 76]: the pIC50 on Thrombin (setting [1]), on Trypsin (setting [2]) and at Factor Xa (setting [3]) was < 3.70 throughout.
Consider `Cc1nn(-c2ccccc2)c(C)c1NC(=O)COC(=O)Cc1c(C)[nH]c2ccccc12` [compound 38], for which the negative-log IC50 (pIC50) was < 4.30 on Thrombin (setting [1]), 4.56 on Trypsin (setting [2]) and < 4.30 at Factor Xa (setting [3]).
